Measured values published in ChEMBL document CHEMBL5512623, “Discovery of the novel and potent histamine H1 receptor antagonists for treatment of allergic diseases” (Eur J Med Chem, 2024).

Tests used:
[1] = molecular target: Muscarinic acetylcholine receptor M3 (Homo sapiens, UniProt P20309); experiment: Antagonist activity at human muscarinic M3 receptor expressed in PathHunter U2OS CHRM3 beta-arrestin cells preincubated for 30 mins followed by agonist addition at 6 times EC80 and measured after 90 to 180 mins by PathHunter assay; type: functional, cell-based
[2] = molecular target: Voltage-gated inwardly rectifying potassium channel KCNH2 (Homo sapiens, UniProt Q12809); experiment: Inhibition of hERG in HEK293 cells measured after 5 mins by patch-clamp assay
[3] = Cmax in female Sprague-Dawley rat brain at 10 mg/kg, IG administered as single dose; type: ADME, organism-based; conditions: po
[4] = Cmax in male Sprague-Dawley rat brain at 10 mg/kg, IG administered as single dose; type: ADME, organism-based; conditions: po
[5] = Cmax in female Sprague-Dawley rat plasma at 10 mg/kg, IG administered as single dose; type: ADME, organism-based; conditions: po
[6] = Cmax in male Sprague-Dawley rat plasma at 10 mg/kg, IG administered as single dose; type: ADME, organism-based; conditions: po
[7] = Apparent permeability across apical to basolateral side in human Caco-2 cells at 5 uM measured at 60 mins; type: ADME, cell-based
[8] = Apparent permeability across basolateral to apical side in human Caco-2 cells at 5 uM measured at 60 mins; type: ADME, cell-based
[9] = Efflux ratio of apparent permeability across basolateral to apical over apical to basolateral side in human Caco-2 cells at 5 uM measured at 60 mins; type: ADME, cell-based

Muscarinic acetylcholine receptor M3, sequence (P20309 whole entry): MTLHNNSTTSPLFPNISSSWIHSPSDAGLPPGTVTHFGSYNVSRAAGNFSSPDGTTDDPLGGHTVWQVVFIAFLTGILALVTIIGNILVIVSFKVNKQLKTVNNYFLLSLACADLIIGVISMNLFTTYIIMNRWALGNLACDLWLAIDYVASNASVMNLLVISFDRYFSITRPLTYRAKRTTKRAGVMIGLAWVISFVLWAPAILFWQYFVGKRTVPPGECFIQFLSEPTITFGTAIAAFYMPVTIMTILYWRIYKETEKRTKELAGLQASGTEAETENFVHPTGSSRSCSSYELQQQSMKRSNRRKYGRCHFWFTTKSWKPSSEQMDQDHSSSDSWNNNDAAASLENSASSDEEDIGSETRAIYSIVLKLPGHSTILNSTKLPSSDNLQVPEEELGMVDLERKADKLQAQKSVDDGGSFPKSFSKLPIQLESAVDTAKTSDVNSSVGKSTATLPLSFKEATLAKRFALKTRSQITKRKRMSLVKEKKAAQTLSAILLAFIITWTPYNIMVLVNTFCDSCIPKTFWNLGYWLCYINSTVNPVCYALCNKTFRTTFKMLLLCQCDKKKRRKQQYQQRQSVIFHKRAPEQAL
Voltage-gated inwardly rectifying potassium channel KCNH2, sequence (Q12809 whole entry): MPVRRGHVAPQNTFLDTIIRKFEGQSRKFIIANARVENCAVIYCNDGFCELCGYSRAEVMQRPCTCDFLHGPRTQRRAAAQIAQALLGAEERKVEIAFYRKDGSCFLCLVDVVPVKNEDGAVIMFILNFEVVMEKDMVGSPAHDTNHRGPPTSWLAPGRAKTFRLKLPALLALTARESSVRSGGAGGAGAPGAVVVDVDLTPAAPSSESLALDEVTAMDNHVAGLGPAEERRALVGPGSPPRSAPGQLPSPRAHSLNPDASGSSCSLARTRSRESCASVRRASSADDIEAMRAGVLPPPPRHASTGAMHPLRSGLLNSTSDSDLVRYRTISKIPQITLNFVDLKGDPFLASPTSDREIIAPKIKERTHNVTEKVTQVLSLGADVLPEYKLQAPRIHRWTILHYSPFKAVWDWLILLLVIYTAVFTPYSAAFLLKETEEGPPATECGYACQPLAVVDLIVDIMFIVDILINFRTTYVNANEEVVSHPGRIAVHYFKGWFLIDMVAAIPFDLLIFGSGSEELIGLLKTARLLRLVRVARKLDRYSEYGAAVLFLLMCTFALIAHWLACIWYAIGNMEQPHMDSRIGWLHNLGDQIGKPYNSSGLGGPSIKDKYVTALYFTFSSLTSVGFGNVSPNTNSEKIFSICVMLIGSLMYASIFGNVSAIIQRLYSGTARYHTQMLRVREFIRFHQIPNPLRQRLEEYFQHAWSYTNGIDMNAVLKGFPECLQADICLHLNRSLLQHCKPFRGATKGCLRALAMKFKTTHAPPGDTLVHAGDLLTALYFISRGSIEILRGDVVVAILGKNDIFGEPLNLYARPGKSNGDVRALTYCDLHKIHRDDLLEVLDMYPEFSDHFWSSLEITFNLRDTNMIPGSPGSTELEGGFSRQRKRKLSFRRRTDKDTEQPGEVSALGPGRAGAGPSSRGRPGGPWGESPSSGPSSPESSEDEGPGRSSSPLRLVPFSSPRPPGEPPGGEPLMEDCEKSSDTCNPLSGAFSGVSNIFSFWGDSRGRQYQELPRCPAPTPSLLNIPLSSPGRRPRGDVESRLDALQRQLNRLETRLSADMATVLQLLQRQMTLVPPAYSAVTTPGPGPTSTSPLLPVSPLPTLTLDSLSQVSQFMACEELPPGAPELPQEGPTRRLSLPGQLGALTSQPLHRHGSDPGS

Row | IC50 [1] | SMILES | IC50 [2] | other results
1 | > 10 µM | CC(C)(C(=O)O)c1cccc(NCCN2CCC(=C3c4ccc(Cl)cc4CCc4cccnc43)CC2)c1 | – | –
2 | > 10 µM | CC(C)(C(=O)O)c1ccc(CN2CCC(=C3c4ccc(Cl)cc4CCc4cccnc43)CC2)cc1 | 18.4 µM | –
3 | > 10 µM | CC(C)(C(=O)O)c1ccc(CCCN2CCC(=C3c4ccc(Cl)cc4CCc4cccnc43)CC2)nc1 | – | –
4 | > 10 µM | NC(=O)c1cn(CCN2CCC(=C3c4ccc(Cl)cc4CCc4cccnc43)CC2)nn1 | 6.36 µM | –
5 | > 10 µM | CC(C)(C(=O)O)c1ccccc1CCCN1CCC(=C2c3ccc(Cl)cc3CCc3cccnc32)CC1 | – | –
6 | > 10 µM | CC(C)(C(=O)O)c1ccc(CCCN2CCC(=C3c4ccc(Cl)cc4CCc4cccnc43)CC2)c(F)c1 | 30.1 µM | –
7 | – | Clc1ccc2c(c1)CCc1cccnc1C2=C1CCNCC1 [DESLORATADINE] | – | Cmax [3]: 1180 ng/g; Cmax [4]: 843 ng/g; Cmax [5]: 549 ng/g; Cmax [6]: 112 ng/g
8 | – | CC(C)NCC(O)COc1cccc2ccccc12 (stereo unspecified) [PROPRANOLOL] | – | Papp A→B at 1 h, 5 µM [7]: 34.8 ×10⁻⁶ cm/s; Papp B→A at 1 h, 5 µM [8]: 20.5 ×10⁻⁶ cm/s; efflux ratio at 1 h, 5 µM [9]: 0.59
